From patent US20100035932A1, “NOVEL FORMYL PEPTIDE RECEPTOR LIKE 1 AGONISTS THAT INDUCE MACROPHAGE TUMOR NECROSIS FACTOR ALPHA AND COMPUTATIONAL STRUCTURE-ACTIVITY RELATIONSHIP ANALYSIS OF THEREOF” (priority 2008, published 2010)
Read-outs that look alike come from different tables or passages of the source.

Assays:
J774.A1 macrophages [1] = test: TNF-α production in J774.A1 macrophages (ELISA); format: cell-based, murine; settings: for fold induction at 50 µM: Mus musculus, J774.A1, 24 h
human FPR = target: T1, human FPR (Homo sapiens, UniProt P21462); test: Ca2+ mobilization in RBL-FPR cells; format: cell-based
T1 construct: expressed in transfected cells; host or cells: rat basophilic leukemia RBL-2H3 cells (RBL-FPR)
T1 sequence (P21462 1-350): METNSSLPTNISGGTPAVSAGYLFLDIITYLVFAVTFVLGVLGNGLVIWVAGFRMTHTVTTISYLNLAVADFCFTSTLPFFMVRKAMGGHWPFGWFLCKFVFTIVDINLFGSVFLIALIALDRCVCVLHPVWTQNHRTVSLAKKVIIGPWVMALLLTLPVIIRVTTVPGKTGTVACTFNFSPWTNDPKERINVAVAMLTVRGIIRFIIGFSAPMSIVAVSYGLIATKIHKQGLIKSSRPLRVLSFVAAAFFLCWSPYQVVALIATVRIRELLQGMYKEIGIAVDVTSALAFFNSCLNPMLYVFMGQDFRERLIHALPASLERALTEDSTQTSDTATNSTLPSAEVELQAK

human neutrophils [2] = test: Chemotaxis assay, human neutrophils; format: cell-based; settings: percent of response induced by 50 nM IL-8
murine neutrophils = test: Chemotaxis assay, murine neutrophils; format: cell-based; settings: percent of response induced by 50 nM KC
human neutrophils [3] = test: ROS production in human neutrophils (L-012 luminescence); format: cell-based; settings: Neutrophil, concentration that enhanced ROS production by 50% above background, read-out: ROS Production AC50, Human PMN
Description: J774.A1 macrophages were plated at density of 1.5×10^5 cells/well in wells of 96-well flat-bottom white microtiter plates (Corning Incorporated, Costar). After 16 hr (5% CO2, 37° C.), the media was aspirated, and test compounds or vehicle (final DMSO concentration of 1%) were added in fresh media (DMEM without phenol red, supplemented with 3% (v/v) FBS). After 5 min, the media was replaced by HBSS+ containing 4 μM L-012 and 8 μg/ml HRP, and luminescence was monitored for 120 min (2-min intervals) at 37° C. using a Fluoroscan Ascent FL microtiter plate reader (Thermo Electron, Waltham, Mass.). The curve of light intensity (in relative luminescence units) was plotted against time, and the area under the curve was calculated as total luminescence. The percent activation of ROS was calculated as follows: % activation=(sample-DMSO control)/DMSO control×100. The minimal compound concentration that enhanced ROS production by 50% above background control cells (AC50) was determined by graphing the % activation of ROS vs. log [test compound]. Each curve was determined using five to seven compound concentrations. Human neutrophils were plated at density of 5×10^5 cells/well in wells of 96-well flatbottom white microtiter plates, and compounds under investigation or vehicle (final DMSO concentration of 1%) were added. After 5 min, the media was replaced by HBSS+ containing […] L-012, and luminescence was monitored for 120 min (2-min intervals) at 37° C. using a Fluoroscan Ascent FL microtiter plate reader. The results were analysed as described above to determine % activation and AC50 values.

J774.A1 macrophages [4] = test: ROS production in J774.A1 macrophages (L-012 luminescence); format: cell-based; settings: Mus musculus, concentration that enhanced ROS production by 50% above background, read-out: ROS Production AC50, Murine Mφ
Description: (§1) Murine macrophage J774.A1 cells were cultured in DMEM supplemented with 10% (v/v) heat-inactivated fetal bovine serum (FBS), 10 mM HEPES, 100 μg/ml streptomycin, and 100 U/ml penicillin. Cells were grown to confluence in sterile tissue culture flasks and gently detached by scraping. Human monocyte/macrophage MonoMac6 cells (DSMZ, Germany) were cultured in RPMI 1640 supplemented with 10% (v/v) FBS, 10 μg/ml bovine insulin, 100 μg/ml streptomycin, and 100 U/ml penicillin. Rat basophilic leukemia (RBL-2H3) cells transfected with human FPR (RBL-FPR) or FPRL1 (RBL-FPRL1) were cultured in DMEM supplemented with 20% (v/v) FBS, 10 mM HEPES, 100 μg/ml streptomycin, and 100 U/ml penicillin, as described previously (Nanamori et al., 2004). Human monocytic THP-1 cells were cultured in RPMI 1640 medium supplemented with 10% (v/v) FBS, 100 μg/ml streptomycin, and 100 U/ml penicillin. All cell cultures were grown at 37° C. in a humidified atmosphere containing 5% CO2. Cell number and viability were assessed microscopically using trypan blue exclusion.
J774.A1 macrophages were plated at density of 1.5×10^5 cells/well in wells of 96-well flat-bottom white microtiter plates (Corning Incorporated, Costar). […] After 5 min, the media was replaced by HBSS+ containing 4 μM L-012 and 8 μg/ml HRP, and luminescence was monitored for 120 min (2-min intervals) at 37° C. using a Fluoroscan Ascent FL microtiter plate reader (Thermo Electron, Waltham, Mass.). The curve of light intensity (in relative luminescence units) was plotted against time, and the area under the curve was calculated as total luminescence. The percent activation of ROS was calculated as follows: % activation=(sample-DMSO control)/DMSO control×100. The minimal compound concentration that enhanced ROS production by 50% above background control cells (AC50) was determined by graphing the % activation of ROS vs. log [test compound]. Each curve was determined using five to seven compound concentrations. […] The results were analysed as described above to determine % activation and AC50 values.

J774.A1 macrophages [5] = test: IL-6 production in J774.A1 macrophages (ELISA); format: cell-based, murine; settings: J774.A1, 24 hr
Description: (§2) Cells were treated for 24 hr with DMSO control, test compound, or LPS and mouse TNF-α or IL-6 and human TNF-α enzyme-linked immunosorbent assay (ELISA) kits (BD Biosciences Pharmigen) were used to detect these cytokines in the cell supernatants. Cytokine concentration was determined by extrapolation from the TNF-α/IL-6 standard curve, according to the manufacturer's protocol.
(§3) For treatments, cells were plated in 96-well microtiter plates at 2×10^5 cells/well (J774.A1, MonoMac6) or 6×10^4 cells/well (human monocyte-derived macrophages) using their respective culture media, except FBS was reduced to 3% (v/v). After incubation overnight (5% CO2, 37° C.), the media were removed and replaced with fresh media containing test compounds.

J774.A1 macrophages [6] = test: cells; settings: Mus musculus, J774.A1, read-out: Ca2+ Mobilization EC50, Murine Mφ
Description: Murine macrophage J774.A1 cells were cultured in DMEM supplemented with 10% (v/v) heat-inactivated fetal bovine serum (FBS), 10 mM HEPES, 100 μg/ml streptomycin, and 100 U/ml penicillin. Cells were grown to confluence in sterile tissue culture flasks and gently detached by scraping. […] All cell cultures were grown at 37° C. in a humidified atmosphere containing 5% CO2. Cell number and viability were assessed microscopically using trypan blue exclusion.

human neutrophils [7] = test: Ca2+ mobilization in human neutrophils (FLIPR Calcium 3); settings: Neutrophil
FPRL1 = target: T2, FPRL1 (Homo sapiens, UniProt P25090); test: Ca2+ mobilization in RBL-FPRL1 cells; format: cell-based
T2 construct: expressed in transfected cells; host or cells: rat basophilic leukemia RBL-2H3 cells (RBL-FPRL1)
T2 sequence (P25090 1-351): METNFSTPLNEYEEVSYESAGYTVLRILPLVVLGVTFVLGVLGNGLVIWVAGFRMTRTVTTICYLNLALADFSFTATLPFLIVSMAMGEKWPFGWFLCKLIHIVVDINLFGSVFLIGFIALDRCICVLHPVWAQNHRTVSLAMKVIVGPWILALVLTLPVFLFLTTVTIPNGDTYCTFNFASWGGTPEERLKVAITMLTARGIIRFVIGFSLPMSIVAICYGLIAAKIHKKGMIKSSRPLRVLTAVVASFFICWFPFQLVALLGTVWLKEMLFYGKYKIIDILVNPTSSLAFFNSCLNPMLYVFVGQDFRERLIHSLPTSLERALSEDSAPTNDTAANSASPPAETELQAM

J774.A1 cells = test: Cytotoxicity assay (CellTiter-Glo); format: cell-based, murine; settings: J774.A1, 24 hr
Description: Cytotoxicity was analyzed with a CellTiter-Glo Luminescent Cell Viability Assay Kit (Promega, Inc., Madison, Wis.), according to the manufacturer's protocol. Briefly, J774.A1 cells were cultured at a density of 3×10^4 cells/well with the test compounds for 24 hr at 37° C. and 5% CO2, substrate was added, and luminescence signal in the samples was analyzed with a Fluoroscan Ascent FL.

[8] = system: murine peritoneal macrophages; test: TNF-α production in murine peritoneal macrophages (ELISA); format: cell-based; settings: 24 hr, various concentrations
Description: Bone marrow leukocytes were flushed from tibias and femurs of BALB/c mice with HBSS− supplemented with 0.1% BSA and 1% glucose and the neutrophils were purified on Percoll density gradients, as previously described (Schepetkin et al., 2007). Peritoneal macrophages were isolated from BALB/c mice 4 days after intraperitoneal injection of 1 ml saline containing 100 μg concanavalin A, as described previously (Schepetkin et al., 2005). Peritoneal exudate cells were suspended in RPMI 1640 containing 10% (v/v) FBS with antibiotics (penicillin and streptomycin) and incubated at 37° C. in 100 mm tissue culture dishes for 1 h. Adherent peritoneal macrophages were harvested and cultured with the compounds under investigation for 24 hr at 37° C. and 5% CO2.
as §2

[9] = system: human monocytic cells THP-1; test: TNF-α production in THP-1 cells (ELISA); format: cell-based; settings: 24 hr, various concentrations
Description: as §1, with “All cell cultures were grown at 37° C. in a humidified atmosphere containing 5% CO2.” left out
as §2

[10] = system: human MonoMac6 macrophages; test: TNF-α production in MonoMac6 cells (ELISA); format: cell-based; settings: 24 hr, various concentrations
[11] = system: human monocyte-derived macrophages; test: TNF-α production in human monocyte-derived macrophages (ELISA); format: cell-based; settings: 24 hr, various concentrations
Description: as §2, §3

[12] = relative fold of activation compared to vehicle (DMSO) control for 50 μM compound, N.A. = no activity was observed, read-out: TNF-α production
[13] = read-out: Ca2+ Mobilization EC50, Human PMN

Compound	fold induction at 50 µM (J774.A1 macrophages [1]; [12])	Chemotaxis (%), Human PMN (human neutrophils [2]) [%]	Chemotaxis (%), Murine PMN (murine neutrophils) [%]	AC50 (human neutrophils [3]) [µM]	AC50 (J774.A1 macrophages [4]) [µM]	IL-6 production (J774.A1 macrophages [5])	EC50 (J774.A1 macrophages [6]) [µM]	EC50 (human neutrophils [7]; [13]) [µM]	EC50 (human neutrophils [7]; read-out: [Ca2+]i EC50) [µM]	other results
COc1cc(/C=N\NC(=O)c2ccc3c(c2)OCO3)ccc1OCc1ccccc1 [Compound 6]	5 to 8	98.0 ± 3.4	174.8 ± 9.2	38.6 ± 3.3	26.9 ± 3.9	failed to induce macrophage IL-6 production	4.2 ± 0.8	0.63 ± 0.39	0.63	TNF-α production, primary screening of agonists AG 1-26 (J774.A1 macrophages [1]; murine J774.A1 macrophages): induced modest levels of TNF-α production; EC50 (human FPR): 6.6 µM
O=C(N/N=C/c1ccc(-c2cccc(Br)c2)o1)c1cccnc1 [Compound 1]	40 to 50	67.8 ± 9.4	68.9 ± 7.8	0.2 ± 0.02	25.4 ± 4	induced secretion of IL-6	24.1 ± 4.1	0.3 ± 0.2	0.3	fold induction at 50 µM (J774.A1 macrophages [1]; 50 μM compound, above response to vehicle (DMSO) control, Table 5 numbering, N.A. = inactive, read-out: FI (fold-increase of macrophage TNF-α production)): 50; Determined class of macrophage TNF-α inducing activity (J774.A1 macrophages [1]; experimentally determined class): Active; Effect of Boc-2 (FPR/FPRL1 antagonist) on compound-induced TNF-α production (J774.A1 macrophages [1]; pretreated 5 min with Boc 2 (40 μM), then 50 μM compound 24 hr): inhibited; Effect of WRW4 (FPRL1 antagonist) on compound-induced TNF-α production (J774.A1 macrophages [1]; pretreated 5 min with WRW4 (10 μM), then 50 μM compound 24 hr): inhibited; Effect of PTX on induced TNF-α production (J774.A1 macrophages [1]; pretreated 30 min with PTX (0.4 and 1 μg/ml), then Compound 50 μM or LPS 50 ng/ml for 12 hr): significantly inhibited; Effect of ActD or CHX on compound-induced TNF-α production (J774.A1 macrophages [1]; pretreated with ActD 1 μg/ml or CHX 5 μg/ml 30 min, then 50 μM compound 12 hr): completely inhibited; EC50 (FPRL1): 19.1 µM; Effect on cell viability (J774.A1 cells): had no effect on cell viability; TNF-α production in murine peritoneal macrophages [8]: induced TNF-α production in a concentration-dependent manner; TNF-α production in THP-1 cells [9]: induced TNF-α production in a concentration-dependent manner; TNF-α production in MonoMac6 cells [10]: induced TNF-α production in a concentration-dependent manner; TNF-α production in human monocyte-derived macrophages [11]: induced TNF-α production in a concentration-dependent manner
